In patent US6503909B1, “Pyrazine compounds” (SmithKline Beecham Corporation, priority 1998, dated 2003):

Test system: male Han Wistar rats
Assay: rat maximal electroshock test (MES)
Type: in vivo
Experimental: For example, male Han Wistar rats (150-200 grms) were dosed i.p. with a suspension of the test compound in 0.25% methylcellulose 2 hr prior to test. A visual observation was carried out just prior to testing for the presence of ataxia. Using auricular electrodes a current of 200 mA, duration 300 millisec, was applied and the presence or absence of hind limb extension noted.

SMILES: Nc1nnc(-c2cccc(Cl)c2Cl)c(N)n1 [lamotrigine]
- ED50 (Rattus norvegicus, ip, dosed i.p. as suspension in 0.25% methylcellulose 2 hr prior to test, 200 mA, 300 millisec, auricular electrodes, read-out: ED50 (MES, hind limb extension)): 6.1 mg/kg
- therapeutic index (ratio of the ataxia ED50 and MES ED50) (i.p., 2 hr prior to test, ataxia by visual observation): 3.3
